The text below walks through data of ChEMBL document CHEMBL4414655, “Position Effect of Fatty Acid Modification on the Cytotoxicity and Antimetastasis Potential of the Cytotoxic Peptide Lycosin-I” (J Med Chem, 2019).

Series [1] concerns A549. The series can be described thus: Induction of cell membrane disruption in human A549 cells assessed as LDH release at 3.25 uM incubated for 30 mins by fluorescence based assay relative to control. Background: LDH leaks from cells whose membrane has failed.
Series [2] relates to A549. In words: Cytotoxicity in human A549 cells assessed as reduction in cell viability by trypan blue staining method. Format: functional, cell-based.
Series [3] concerns HEK-293T. In words: Cytotoxicity in human HEK293T cells assessed as reduction in cell viability incubated for 24 hrs by CCK8 assay. The settings on record: human, hek-293t. Format: cell-based.
The test system of series [4] is B16-F10. In words: Cytotoxicity in mouse B16/F10 cells assessed as reduction in cell viability incubated for 24 hrs by CCK8 assay. The format is functional, cell-based. As to conditions: B16-F10, 24 h. For orientation: Formazan colour is commonly taken as a measure of viable cells.
In series [5] the test system is A549. The series can be described thus: Cytotoxicity in human A549 cells assessed as reduction in cell viability incubated for 24 hrs by CCK8 assay. The format is functional, cell-based. The settings on record: A549, 24 h.
Series [6] deals with A549. In words: Potency index, ratio of IC50 for lycosin-I to IC50 for test compound for cytotoxicity in human A549 cells assessed as reduction in cell viability at 0.78 to 50 uM incubated for 24 hrs by CCK8 assay. Format: functional.
The species entered for series [7] is Homo sapiens. In words: Induction of cell membrane disruption in human erythrocytes cells assessed as induction of hemolysis at 0.098 to 50 uM incubated for 1 hr by fluorescence based assay relative to control. Format: cell membranes.

Calls of active or inactive are those of the source. The rule behind the calls is not given here. Residues, ends and D or L forms follow the SMILES beside them. *: point of attachment. Lauroyl = CCCCCCCCCCCC(=O)*

`CCCCCCCCCCCC(=O)NCCCC[C@H](N)C(=O)NCC(=O)N[C@@H](Cc1c[nH]c2ccccc12)C(=O)N[C@@H](Cc1ccccc1)C(=O)N[C@@H](CCCCN)C(=O)N[C@@H](C)C(=O)N[C@@H](CCSC)C(=O)N[C@@H](CCCCN)C(=O)N[C@@H](CO)C(=O)N[C@H](C(=O)N[C@@H](C)C(=O)N[C@@H](CCCCN)C(=O)N[C@@H](Cc1ccccc1)C(=O)N[C@H](C(=O)N[C@@H](C)C(=O)N[C@@H](CCCCN)C(=O)N[C@@H](CCC(=O)O)C(=O)N[C@@H](CCCCN)C(=O)N[C@@H](CC(C)C)C(=O)N[C@@H](CCCCN)C(=O)N[C@@H](CCC(=O)O)C(=O)N[C@@H](Cc1cnc[nH]1)C(=O)N[C@@H](CC(C)C)C(=O)O)[C@@H](C)CC)[C@@H](C)CC` (H-K(Lauroyl)GWFKAMKSIAKFIAKEKLKEHL-OH): the results for the Activity in series [1] and in series [3] were 51.3% and “Toxic”, respectively. In addition, the result in series [2] and in series [7] was Active. Further, the half-maximal inhibitory concentration (IC50) (commonly the midpoint of a concentration-inhibition curve) in series [4] is 2000 nM; in series [5], 3100 nM. Also, the “Ratio IC50” value in series [6] is 4 - 15.
`CCCCCCCCCCCC(=O)NCCCC[C@H](NC(=O)[C@H](Cc1ccccc1)NC(=O)[C@H](Cc1c[nH]c2ccccc12)NC(=O)CNC(=O)[C@@H](N)CCCCN)C(=O)N[C@@H](C)C(=O)N[C@@H](CCSC)C(=O)N[C@@H](CCCCN)C(=O)N[C@@H](CO)C(=O)N[C@H](C(=O)N[C@@H](C)C(=O)N[C@@H](CCCCN)C(=O)N[C@@H](Cc1ccccc1)C(=O)N[C@H](C(=O)N[C@@H](C)C(=O)N[C@@H](CCCCN)C(=O)N[C@@H](CCC(=O)O)C(=O)N[C@@H](CCCCN)C(=O)N[C@@H](CC(C)C)C(=O)N[C@@H](CCCCN)C(=O)N[C@@H](CCC(=O)O)C(=O)N[C@@H](Cc1cnc[nH]1)C(=O)N[C@@H](CC(C)C)C(=O)O)[C@@H](C)CC)[C@@H](C)CC` (H-KGWFK(Lauroyl)AMKSIAKFIAKEKLKEHL-OH): the Activity in series [1] is listed as 23.1%; in series [3], “Toxic”. Further, the outcome in series [2] and in series [7] was Active. Moreover, the IC50 in series [4] was found to be 2000 nM; in series [5] it was 7700 nM. Further, the “Ratio IC50” value in series [6] is 4 - 15.
Regarding `CCCCCCCCCCCC(=O)NCCCC[C@H](NC(=O)[C@H](CCSC)NC(=O)[C@H](C)NC(=O)[C@H](CCCCN)NC(=O)[C@H](Cc1ccccc1)NC(=O)[C@H](Cc1c[nH]c2ccccc12)NC(=O)CNC(=O)[C@@H](N)CCCCN)C(=O)N[C@@H](CO)C(=O)N[C@H](C(=O)N[C@@H](C)C(=O)N[C@@H](CCCCN)C(=O)N[C@@H](Cc1ccccc1)C(=O)N[C@H](C(=O)N[C@@H](C)C(=O)N[C@@H](CCCCN)C(=O)N[C@@H](CCC(=O)O)C(=O)N[C@@H](CCCCN)C(=O)N[C@@H](CC(C)C)C(=O)N[C@@H](CCCCN)C(=O)N[C@@H](CCC(=O)O)C(=O)N[C@@H](Cc1cnc[nH]1)C(=O)N[C@@H](CC(C)C)C(=O)O)[C@@H](C)CC)[C@@H](C)CC` (H-KGWFKAMK(Lauroyl)SIAKFIAKEKLKEHL-OH), the Activity is on record as 25.7% in series [1] and “Toxic” in series [3]. The result in series [2] and in series [7] was Active. Besides, the IC50 in series [4] turned out to be 2000 nM; in series [5], 7300 nM. For the same compound, the “Ratio IC50” value in series [6] was 4 - 15.
With `CCCCCCCCCCCC(=O)NCCCC[C@H](NC(=O)[C@H](C)NC(=O)[C@@H](NC(=O)[C@H](CO)NC(=O)[C@H](CCCCN)NC(=O)[C@H](CCSC)NC(=O)[C@H](C)NC(=O)[C@H](CCCCN)NC(=O)[C@H](Cc1ccccc1)NC(=O)[C@H](Cc1c[nH]c2ccccc12)NC(=O)CNC(=O)[C@@H](N)CCCCN)[C@@H](C)CC)C(=O)N[C@@H](Cc1ccccc1)C(=O)N[C@H](C(=O)N[C@@H](C)C(=O)N[C@@H](CCCCN)C(=O)N[C@@H](CCC(=O)O)C(=O)N[C@@H](CCCCN)C(=O)N[C@@H](CC(C)C)C(=O)N[C@@H](CCCCN)C(=O)N[C@@H](CCC(=O)O)C(=O)N[C@@H](Cc1cnc[nH]1)C(=O)N[C@@H](CC(C)C)C(=O)O)[C@@H](C)CC` (H-KGWFKAMKSIAK(Lauroyl)FIAKEKLKEHL-OH), the Activity in series [1] is reported as 38.5%; in series [3], “Toxic”. Moreover, the outcome in series [2] and in series [7] was Active. Further, the values for the concentration for half-maximal inhibition (IC50) in series [4] and in series [5] were 2000 nM and 4900 nM, respectively. The “Ratio IC50” value in series [6] is reported as 4 - 15.
`CCCCCCCCCCCC(=O)NCCCC[C@H](NC(=O)[C@H](C)NC(=O)[C@@H](NC(=O)[C@H](Cc1ccccc1)NC(=O)[C@H](CCCCN)NC(=O)[C@H](C)NC(=O)[C@@H](NC(=O)[C@H](CO)NC(=O)[C@H](CCCCN)NC(=O)[C@H](CCSC)NC(=O)[C@H](C)NC(=O)[C@H](CCCCN)NC(=O)[C@H](Cc1ccccc1)NC(=O)[C@H](Cc1c[nH]c2ccccc12)NC(=O)CNC(=O)[C@@H](N)CCCCN)[C@@H](C)CC)[C@@H](C)CC)C(=O)N[C@@H](CCC(=O)O)C(=O)N[C@@H](CCCCN)C(=O)N[C@@H](CC(C)C)C(=O)N[C@@H](CCCCN)C(=O)N[C@@H](CCC(=O)O)C(=O)N[C@@H](Cc1cnc[nH]1)C(=O)N[C@@H](CC(C)C)C(=O)O` (H-KGWFKAMKSIAKFIAK(Lauroyl)EKLKEHL-OH): the Activity in series [1] is 34.6%; in series [3] it was “Toxic”. Also, the outcome in series [2] and in series [7] was Active. Moreover, the values for the IC50 in series [4] and in series [5] were 2000 nM and 4600 nM, respectively. Further, the “Ratio IC50” value in series [6] is reported as 4 - 15.
`CCCCCCCCCCCC(=O)NCCCC[C@H](NC(=O)[C@H](CCC(=O)O)NC(=O)[C@H](CCCCN)NC(=O)[C@H](C)NC(=O)[C@@H](NC(=O)[C@H](Cc1ccccc1)NC(=O)[C@H](CCCCN)NC(=O)[C@H](C)NC(=O)[C@@H](NC(=O)[C@H](CO)NC(=O)[C@H](CCCCN)NC(=O)[C@H](CCSC)NC(=O)[C@H](C)NC(=O)[C@H](CCCCN)NC(=O)[C@H](Cc1ccccc1)NC(=O)[C@H](Cc1c[nH]c2ccccc12)NC(=O)CNC(=O)[C@@H](N)CCCCN)[C@@H](C)CC)[C@@H](C)CC)C(=O)N[C@@H](CC(C)C)C(=O)N[C@@H](CCCCN)C(=O)N[C@@H](CCC(=O)O)C(=O)N[C@@H](Cc1cnc[nH]1)C(=O)N[C@@H](CC(C)C)C(=O)O` (H-KGWFKAMKSIAKFIAKEK(Lauroyl)LKEHL-OH): the Activity in series [1] is 40.2%; in series [3] it was “Toxic”. Moreover, the result in series [2] and in series [7] was Active. Moreover, the half-inhibitory concentration (IC50) amounted to 2000 nM in series [4] and 5100 nM in series [5]. Moreover, the “Ratio IC50” value in series [6] is reported as 4 - 15.
Consider `CCCCCCCCCCCC(=O)NCCCC[C@H](NC(=O)[C@H](CC(C)C)NC(=O)[C@H](CCCCN)NC(=O)[C@H](CCC(=O)O)NC(=O)[C@H](CCCCN)NC(=O)[C@H](C)NC(=O)[C@@H](NC(=O)[C@H](Cc1ccccc1)NC(=O)[C@H](CCCCN)NC(=O)[C@H](C)NC(=O)[C@@H](NC(=O)[C@H](CO)NC(=O)[C@H](CCCCN)NC(=O)[C@H](CCSC)NC(=O)[C@H](C)NC(=O)[C@H](CCCCN)NC(=O)[C@H](Cc1ccccc1)NC(=O)[C@H](Cc1c[nH]c2ccccc12)NC(=O)CNC(=O)[C@@H](N)CCCCN)[C@@H](C)CC)[C@@H](C)CC)C(=O)N[C@@H](CCC(=O)O)C(=O)N[C@@H](Cc1cnc[nH]1)C(=O)N[C@@H](CC(C)C)C(=O)O` (H-KGWFKAMKSIAKFIAKEKLK(Lauroyl)EHL-OH), for which the results for the Activity in series [1] and in series [3] were 36.6% and “Toxic”, respectively. In addition, the outcome in series [2] and in series [7] was Active. Further, the 50% inhibitory concentration (IC50) in series [4] stood at 2000 nM; in series [5] it was 5000 nM. Moreover, in series [6], the “Ratio IC50” value is reported as 4 - 15.
